Assay results from ChEMBL document CHEMBL2380212, “Synthesis, single crystal and antitumor activities of benzimidazole-quinazoline hybrids” (Bioorg Med Chem Lett, 2013).

Columns and labels:
BT-549 = assay: Cytotoxicity against human BT549 cells at 10 uM after 48 hrs by SRB assay; assay type: functional; details: BT-549, 48 h, read-out: GI
T47D = assay: Cytotoxicity against human T47D cells at 10 uM after 48 hrs by SRB assay; assay type: functional; details: read-out: GI
MCF7 = assay: Cytotoxicity against human MCF7 cells at 10 uM after 48 hrs by SRB assay; assay type: functional; details: MCF7, 48 h, read-out: GI
MDA-MB-231 = assay: Cytotoxicity against human MDA-MB-231 cells at 10 uM after 48 hrs by SRB assay; assay type: functional; details: MDA-MB-231, 48 h, read-out: GI
DU-145 = assay: Cytotoxicity against human DU145 cells at 10 uM after 48 hrs by SRB assay; assay type: functional; details: DU-145, 48 h, read-out: GI
UO-31 = assay: Cytotoxicity against human UO31 cells at 10 uM after 48 hrs by SRB assay; assay type: functional; details: UO-31, 48 h, read-out: GI
PC-3 = assay: Cytotoxicity against human PC3 cells at 10 uM after 48 hrs by SRB assay; assay type: functional; details: PC-3, 48 h, read-out: GI
TK-10 = assay: Cytotoxicity against human TK10 cells at 10 uM after 48 hrs by SRB assay; assay type: functional; details: TK-10, 48 h, read-out: GI
RXF 393 = assay: Cytotoxicity against human RXF393 cells at 10 uM after 48 hrs by SRB assay; assay type: functional; details: RXF 393, 48 h, read-out: GI
SN12C = assay: Cytotoxicity against human SN12C cells at 10 uM after 48 hrs by SRB assay; assay type: functional; details: read-out: GI
CAKI-1 = assay: Cytotoxicity against human Caki1 cells at 10 uM after 48 hrs by SRB assay; assay type: functional; details: CAKI-1, 48 h, read-out: GI
ACHN = assay: Cytotoxicity against human ACHN cells at 10 uM after 48 hrs by SRB assay; assay type: functional; details: read-out: GI
786-0 = assay: Cytotoxicity against human 786-0 cells at 10 uM after 48 hrs by SRB assay; assay type: functional; details: 786-0, 48 h, read-out: GI
SK-OV-3 = assay: Cytotoxicity against human SKOV3 cells at 10 uM after 48 hrs by SRB assay; assay type: functional; details: SK-OV-3, 48 h, read-out: GI
NCI/ADR-RES = assay: Cytotoxicity against human NCI/ADR-RES cells at 10 uM after 48 hrs by SRB assay; assay type: functional; details: read-out: GI
OVCAR-5 = assay: Cytotoxicity against human OVCAR5 cells at 10 uM after 48 hrs by SRB assay; assay type: functional; details: OVCAR-5, 48 h, read-out: GI
OVCAR-4 = assay: Cytotoxicity against human OVCAR4 cells at 10 uM after 48 hrs by SRB assay; assay type: functional; details: OVCAR-4, 48 h, read-out: GI
OVCAR-3 = assay: Cytotoxicity against human OVCAR3 cells at 10 uM after 48 hrs by SRB assay; assay type: functional; details: OVCAR-3, 48 h, read-out: GI
IGROV-1 = assay: Cytotoxicity against human IGROV1 cells at 10 uM after 48 hrs by SRB assay; assay type: functional; details: IGROV-1, 48 h, read-out: GI
UACC-62 = assay: Cytotoxicity against human UACC62 cells at 10 uM after 48 hrs by SRB assay; assay type: functional; details: UACC-62, 48 h, read-out: GI
UACC-257 = assay: Cytotoxicity against human UACC257 cells at 10 uM after 48 hrs by SRB assay; assay type: functional; details: UACC-257, 48 h, read-out: GI
SK-MEL-5 = assay: Cytotoxicity against human SK-MEL-5 cells at 10 uM after 48 hrs by SRB assay; assay type: functional; details: SK-MEL-5, 48 h, read-out: GI
SK-MEL-2 = assay: Cytotoxicity against human SK-MEL-2 cells at 10 uM after 48 hrs by SRB assay; assay type: functional; details: SK-MEL-2, 48 h, read-out: GI
MDA-MB-435 = assay: Cytotoxicity against human MDA-MB-435 cells at 10 uM after 48 hrs by SRB assay; assay type: functional; details: MDA-MB-435, 48 h, read-out: GI
Malme-3M = assay: Cytotoxicity against human MALME-3M cells at 10 uM after 48 hrs by SRB assay; assay type: functional; details: read-out: GI
U-251 = assay: Cytotoxicity against human U251 cells at 10 uM after 48 hrs by SRB assay; assay type: functional; details: U-251, 48 h, read-out: GI
LOX IMVI = assay: Cytotoxicity against human LOXIMVI cells at 10 uM after 48 hrs by SRB assay; assay type: functional; details: read-out: GI
SNB-75 = assay: Cytotoxicity against human SNB75 cells at 10 uM after 48 hrs by SRB assay; assay type: functional; details: SNB-75, 48 h, read-out: GI
SNB-19 = assay: Cytotoxicity against human SNB19 cells at 10 uM after 48 hrs by SRB assay; assay type: functional; details: SNB-19, 48 h, read-out: GI
SF-295 = assay: Cytotoxicity against human SF295 cells at 10 uM after 48 hrs by SRB assay; assay type: functional; details: SF-295, 48 h, read-out: GI
SF-268 = assay: Cytotoxicity against human SF268 cells at 10 uM after 48 hrs by SRB assay; assay type: functional; details: SF-268, 48 h, read-out: GI
SW-620 = assay: Cytotoxicity against human SW620 cells at 10 uM after 48 hrs by SRB assay; assay type: functional; details: SW-620, 48 h, read-out: GI
KM12 = assay: Cytotoxicity against human KM12 cells at 10 uM after 48 hrs by SRB assay; assay type: functional; details: KM12, 48 h, read-out: GI
HT-29 = assay: Cytotoxicity against human HT-29 cells at 10 uM after 48 hrs by SRB assay; assay type: functional; details: HT-29, 48 h, read-out: GI
HCT-15 = assay: Cytotoxicity against human HCT15 cells at 10 uM after 48 hrs by SRB assay; assay type: functional; details: HCT-15, 48 h, read-out: GI
HCT-116 = assay: Cytotoxicity against human HCT116 cells at 10 uM after 48 hrs by SRB assay; assay type: functional; details: HCT-116, 48 h, read-out: GI
COLO 205 = assay: Cytotoxicity against human COLO205 cells at 10 uM after 48 hrs by SRB assay; assay type: functional; details: COLO 205, 48 h, read-out: GI
NCI-H522 = assay: Cytotoxicity against human NCI-H522 cells at 10 uM after 48 hrs by SRB assay; assay type: functional; details: NCI-H522, 48 h, read-out: GI
NCI-H460 = assay: Cytotoxicity against human NCI-H460 cells at 10 uM after 48 hrs by SRB assay; assay type: functional; details: NCI-H460, 48 h, read-out: GI
NCI-H322M = assay: Cytotoxicity against human NCI-H322M cells at 10 uM after 48 hrs by SRB assay; assay type: functional; details: read-out: GI
NCI-H226 = assay: Cytotoxicity against human NCI-H226 cells at 10 uM after 48 hrs by SRB assay; assay type: functional; details: NCI-H226, 48 h, read-out: GI
NCI-H23 = assay: Cytotoxicity against human NCI-H23 cells at 10 uM after 48 hrs by SRB assay; assay type: functional; details: NCI-H23, 48 h, read-out: GI
HOP-62 = assay: Cytotoxicity against human HOP62 cells at 10 uM after 48 hrs by SRB assay; assay type: functional; details: HOP-62, 48 h, read-out: GI
HOP-92 = assay: Cytotoxicity against human HOP92 cells at 10 uM after 48 hrs by SRB assay; assay type: functional; details: HOP-92, 48 h, read-out: GI
[1] = Cytotoxicity against human EKVX cells at 10 uM after 48 hrs by SRB assay; assay type: functional; details: read-out: GI
A549 = assay: Cytotoxicity against human A549 cells at 10 uM after 48 hrs by SRB assay; assay type: functional; details: A549, 48 h, read-out: GI
SR = assay: Cytotoxicity against human SR cells at 10 uM after 48 hrs by SRB assay; assay type: functional; details: read-out: GI
MOLT-4 = assay: Cytotoxicity against human MOLT4 cells at 10 uM after 48 hrs by SRB assay; assay type: functional; details: MOLT-4, 48 h, read-out: GI
RPMI-8226 = assay: Cytotoxicity against human RPMI8226 cells at 10 uM after 48 hrs by SRB assay; assay type: functional; details: RPMI-8226, 48 h, read-out: GI
K562 = assay: Cytotoxicity against human K562 cells at 10 uM after 48 hrs by SRB assay; assay type: functional; details: K562, 48 h, read-out: GI
HL-60(TB) = assay: Cytotoxicity against human HL-60(TB) cells at 10 uM after 48 hrs by SRB assay; assay type: functional; details: HL-60, 48 h, read-out: GI
CCRF-CEM = assay: Cytotoxicity against human CCRF-CEM cells at 10 uM after 48 hrs by SRB assay; assay type: functional; details: read-out: GI
[2] = n-Octanol-phosphate buffer partition coefficient, log P of the compound at pH 7.4 by shake flask method; assay type: physicochemical

SMILES: O=c1[nH]cc(F)c(=O)[nH]1 [FLUOROURACIL]
- inhibition of growth at 10 µM (BT-549): 37.8%
- inhibition of growth at 10 µM (T47D): 56.7%
- inhibition of growth at 10 µM (MCF7): 11.5%
- inhibition of growth at 10 µM (MDA-MB-231): 78.1%
- inhibition of growth at 10 µM (DU-145): 35.5%
- inhibition of growth at 10 µM (UO-31): 41.3%
- inhibition of growth at 10 µM (PC-3): 58.2%
- inhibition of growth at 10 µM (TK-10): 66.9%
- inhibition of growth at 10 µM (RXF 393): 34.3%
- inhibition of growth at 10 µM (SN12C): 54%
- inhibition of growth at 10 µM (CAKI-1): 39.4%
- inhibition of growth at 10 µM (ACHN): 39.3%
- inhibition of growth at 10 µM (786-0): 48.7%
- inhibition of growth at 10 µM (SK-OV-3): 77.5%
- inhibition of growth at 10 µM (NCI/ADR-RES): 47.6%
- inhibition of growth at 10 µM (OVCAR-5): 44.3%
- inhibition of growth at 10 µM (OVCAR-4): 59.4%
- inhibition of growth at 10 µM (OVCAR-3): 47.4%
- inhibition of growth at 10 µM (IGROV-1): 51.2%
- inhibition of growth at 10 µM (UACC-62): 39.7%
- inhibition of growth at 10 µM (UACC-257): 19.5%
- inhibition of growth at 10 µM (SK-MEL-5): 33.7%
- inhibition of growth at 10 µM (SK-MEL-2): 95.5%
- inhibition of growth at 10 µM (MDA-MB-435): 36.6%
- inhibition of growth at 10 µM (Malme-3M): 58.2%
- inhibition of growth at 10 µM (U-251): 50.3%
- inhibition of growth at 10 µM (LOX IMVI): 30.4%
- inhibition of growth at 10 µM (SNB-75): 65.9%
- inhibition of growth at 10 µM (SNB-19): 65.9%
- inhibition of growth at 10 µM (SF-295): 69.1%
- inhibition of growth at 10 µM (SF-268): 59%
- inhibition of growth at 10 µM (SW-620): 50.1%
- inhibition of growth at 10 µM (KM12): 40.7%
- inhibition of growth at 10 µM (HT-29): 27.1%
- inhibition of growth at 10 µM (HCT-15): 26.5%
- inhibition of growth at 10 µM (HCT-116): 17.8%
- inhibition of growth at 10 µM (COLO 205): 40.2%
- inhibition of growth at 10 µM (NCI-H522): 58%
- inhibition of growth at 10 µM (NCI-H460): 13%
- inhibition of growth at 10 µM (NCI-H322M): 59.5%
- inhibition of growth at 10 µM (NCI-H226): 69.5%
- inhibition of growth at 10 µM (NCI-H23): 39%
- inhibition of growth at 10 µM (HOP-62): 47.8%
- inhibition of growth at 10 µM (HOP-92): 50.6%
- inhibition of growth at 10 µM [1]: 58.4%
- inhibition of growth at 10 µM (A549): 34.2%
- inhibition of growth at 10 µM (SR): 24.8%
- inhibition of growth at 10 µM (MOLT-4): 43.1%
- inhibition of growth at 10 µM (RPMI-8226): 41.4%
- inhibition of growth at 10 µM (K562): 42.3%
- inhibition of growth at 10 µM (HL-60(TB)): 47.9%
- inhibition of growth at 10 µM (CCRF-CEM): 57.1%

SMILES: C=CCn1c(C)nc2ccc(Nc3nc(N4CCCCC4)nc4ccccc34)cc21
- logD [2]: 2.72
